Measured values published in the supplement of paper PMC10307832.

Each cell line was assayed with O=c1ncccn1[C@@H]1O[C@H](CO)[C@@H](O)[C@H]1O [Zebularine] + C[C@@H](Oc1cc(-c2cnn(C3CCNCC3)c2)cnc1N)c1c(Cl)ccc(F)c1Cl [Crizotinib] (partner 1 µM) (assay: relative viability (nuclei count vs DMSO), 5 days (fraction); higher = more cells survive). Conditions: first compound 1 µM.
Method in brief: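 Relative viability divides the nuclei count in treated wells by that in vehicle wells. Lung cancer cell lines were seeded in 1536-well plates, dosed by pin tool the next day, and fixed and stained after 5 days in one step with final 0.05% Triton X-100, 1% formaldehyde and 1 ug/ml Hoechst. Dosing was a single drug or a fixed anchor-drug dose plus five library-drug doses (not always all listed) in √10 steps, and values are medians of duplicate plates imaged at 4×.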

Cell Line | relative viability
NCI-H520 | 0.784
NCI-H2126 | 1.11
EMC-BAC-2 | 0.795
NCI-H2085 | 0.986
Calu-6 | 0.902
HCC-366 | 0.774
NCI-H1666 | 1.01
NCI-H596 | 0.994
LK-2 | 0.217
NCI-H2087 | 1.07
SK-MES-1 | 1.07
H3255 | 0.945
COR-L23 | 0.633
COR-L 105 | 1.07
IA-LM | 1.07
LOU-NH91 | 0.713
ChaGo-K-1 | 1.09
NCI-H2170 | 1.31
A549 | 0.847
NCI-H1299 | 0.963
CAL-12T | 0.657
NCI-H2228 | 0.462
NCI-H1563 | 0.877
NCI-H1944 | 1.21
ABC-1 | 1.04
NCI-H358 | 0.618

Same assay, conditions: first compound 3.162 µM

Cell Line | relative viability
NCI-H727 | 0.613
NCI-H1650 | 0.788
EBC-1 | 0.18
NCI-H1703 | 0.852
NCI-H1993 | 0.801
SW 1573 | 0.776
NCI-H838 | 0.838
LCLC-103H | 1.11
NCI-H520 | 0.717
NCI-H2126 | 0.987
EMC-BAC-2 | 0.67
NCI-H2085 | 0.814
Calu-6 | 0.77
HCC-366 | 0.637
NCI-H1666 | 0.783
NCI-H596 | 0.948
LK-2 | 0.236

Cell Line | relative viability
NCI-H2087 | 0.803
SK-MES-1 | 1.03
H3255 | 0.853
COR-L23 | 0.742
COR-L 105 | 0.785
IA-LM | 0.718
LOU-NH91 | 0.732
ChaGo-K-1 | 1
NCI-H2170 | 1.13
A549 | 0.846
NCI-H1299 | 0.921
CAL-12T | 0.596
NCI-H2228 | 0.38
NCI-H1563 | 0.873
NCI-H1944 | 1.06
ABC-1 | 1.01
NCI-H358 | 0.475

Same assay, conditions: first compound 10 µM

Cell Line | relative viability
NCI-H727 | 0.638
SW 1573 | 0.44
NCI-H838 | 0.493
LCLC-103H | 0.867
NCI-H520 | 0.429
NCI-H2126 | 0.958
EMC-BAC-2 | 0.689
NCI-H2085 | 0.827
Calu-6 | 0.556
HCC-366 | 0.2
NCI-H1666 | 1.05
NCI-H596 | 0.85
LK-2 | 0.266
NCI-H2087 | 0.551
SK-MES-1 | 0.645
H3255 | 0.576
COR-L23 | 0.454
COR-L 105 | 0.503
LOU-NH91 | 0.693
ChaGo-K-1 | 0.603
NCI-H2170 | 0.7
A549 | 0.478
NCI-H1299 | 0.788
NCI-H2228 | 0.42
NCI-H1563 | 0.849
NCI-H1944 | 0.681
ABC-1 | 0.812
NCI-H358 | 0.237

Same assay, conditions: first compound 31.62 µM

Cell Line | relative viability
NCI-H727 | 0.947
NCI-H1650 | 1.13
EBC-1 | 0.187
NCI-H1703 | 0.67
NCI-H1993 | 0.862
SW 1573 | 0.831
NCI-H838 | 0.65
LCLC-103H | 1.07
NCI-H520 | 0.372
NCI-H2126 | 0.804
EMC-BAC-2 | 0.777
NCI-H2085 | 0.804
Calu-6 | 0.447
HCC-366 | 0.265
NCI-H1666 | 1.02
NCI-H596 | 0.902
LK-2 | 0.209

Cell Line | relative viability
NCI-H2087 | 0.654
SK-MES-1 | 0.648
H3255 | 0.91
COR-L23 | 0.351
COR-L 105 | 0.718
IA-LM | 1.1
LOU-NH91 | 0.738
ChaGo-K-1 | 0.406
NCI-H2170 | 0.981
A549 | 0.228
NCI-H1299 | 0.893
CAL-12T | 0.719
NCI-H2228 | 0.521
NCI-H1563 | 0.935
NCI-H1944 | 0.87
ABC-1 | 0.779
NCI-H358 | 0.387

Same assay, conditions: first compound 100 µM

Cell Line | relative viability
NCI-H727 | 0.881
NCI-H1650 | 0.86
EBC-1 | 0.189
NCI-H1703 | 0.913
NCI-H1993 | 0.646
SW 1573 | 0.574
NCI-H838 | 0.3
LCLC-103H | 0.862
NCI-H520 | 0.261
NCI-H2126 | 0.503
EMC-BAC-2 | 0.824
NCI-H2085 | 0.488
Calu-6 | 0.211
HCC-366 | 0.133
NCI-H1666 | 0.596
NCI-H596 | 0.988
LK-2 | 0.23

Cell Line | relative viability
NCI-H2087 | 0.197
SK-MES-1 | 0.325
H3255 | 0.858
COR-L23 | 0.182
COR-L 105 | 0.729
IA-LM | 0.609
LOU-NH91 | 0.647
ChaGo-K-1 | 0.39
NCI-H2170 | 0.517
A549 | 0.164
NCI-H1299 | 0.566
CAL-12T | 0.574
NCI-H2228 | 0.37
NCI-H1563 | 0.828
NCI-H1944 | 0.666
ABC-1 | 0.565
NCI-H358 | 0.252
